Laboratory results taken from patent US8987267B2, “2-substituted-8-alkyl-7-OXO-7,8-dihydropyrido[2,3-D]pyrimidine-6-carbonitriles and uses thereof in treating proliferative disorders” (Temple University—of the Commonwealth System of Higher …, priority 2010, dated 2015).
pIC50: −log10 of the molar value.

How the values were obtained:
Format in all cases: biochemical
FLT4NEGFR3 = FLT4NEGFR3 (Homo sapiens, UniProt P35916); assay: Kinase inhibition panel; conditions: 10 μM ATP
PKCnu/PRK D3 = PKCnu/PRK D3 (Homo sapiens, UniProt O94806); assay: Kinase inhibition panel; conditions: 10 μM ATP
PKCmu = PKCmu (Homo sapiens, UniProt Q15139); assay: Kinase inhibition panel; conditions: 10 μM ATP
CDK7/cyclinH/MNAT1 = CDK7/cyclinH/MNAT1 (Homo sapiens, UniProt P50613); assay: Kinase inhibition panel; conditions: 10 μM ATP
SIK2/SNF1LK2 = SIK2/SNF1LK2 (Homo sapiens, UniProt Q9H0K1); assay: Kinase inhibition panel; conditions: 10 μM ATP
Protocol: (§1) The compounds in Table 4 were tested for the ability to inhibit the kinase activity of the listed protein kinases.

CDK4/Cyclin D1 = CDK4/Cyclin D1 (Homo sapiens, UniProt P11802); assay: Kinase inhibition panel; conditions: 10 μM ATP
Protocol: as §1

FGFR3 = FGFR3 (Homo sapiens, UniProt P22607); assay: Kinase inhibition panel; conditions: 10 μM ATP
Protocol: as §1

LIMK1 = LIMK1 (Homo sapiens, UniProt P53667); assay: Kinase inhibition panel; conditions: 10 μM ATP
Protocol: as §1

TAOK2ITA01 = TAOK2ITA01 (Homo sapiens, UniProt Q9UL54); assay: Kinase inhibition panel; conditions: 10 μM ATP
Protocol: as §1

FMS = FMS (Homo sapiens, UniProt P07333); assay: Kinase inhibition panel; conditions: 10 μM ATP
Protocol: as §1

CDK9/cyclin K = CDK9/cyclin K (Homo sapiens, UniProt P50750); assay: Kinase inhibition panel; conditions: 10 μM ATP
Protocol: as §1

LCK = LCK (Homo sapiens, UniProt P06239); assay: Kinase inhibition panel; conditions: 10 μM ATP
Protocol: as §1

EphB4 = EphB4 (Homo sapiens, UniProt P54760); assay: Kinase inhibition panel; conditions: 10 μM ATP
Protocol: as §1

LOK/STK10 = LOK/STK10 (Homo sapiens, UniProt O94804); assay: Kinase inhibition panel; conditions: 10 μM ATP
Protocol: as §1

FLTINEGFRI = FLTINEGFRI (Homo sapiens, UniProt P17948); assay: Kinase inhibition panel; conditions: 10 μM ATP
Protocol: as §1

CDK6/cyclinD1 = CDK6/cyclinD1 (Homo sapiens, UniProt Q00534); assay: Kinase inhibition panel; conditions: 10 μM ATP
Protocol: as §1

PAK3 = PAK3 (Homo sapiens, UniProt O75914); assay: Kinase inhibition panel; conditions: 10 μM ATP
Protocol: as §1

ABL2/ARG = ABL2/ARG (Homo sapiens, UniProt P42684); assay: Kinase inhibition panel; conditions: 10 μM ATP
Protocol: as §1

CDK4/Cyclin D3 = CDK4/Cyclin D3 (Homo sapiens, UniProt P11802); assay: Kinase inhibition panel; conditions: 10 μM ATP
FGFR2 = FGFR2 (Homo sapiens, UniProt P21802); assay: Kinase inhibition panel; conditions: 10 μM ATP
LYN = LYN (Homo sapiens, UniProt P07948); assay: Kinase inhibition panel; conditions: 10 μM ATP
FLT3 = FLT3 (Homo sapiens, UniProt P36888); assay: Kinase inhibition panel; conditions: 10 μM ATP
EPHA2 = EPHA2 (Homo sapiens, UniProt P29317); assay: Kinase inhibition panel; conditions: 10 μM ATP
ARK5 = ARK5 (Homo sapiens, UniProt O60285); assay: Kinase inhibition panel; conditions: 10 μM ATP
[1] = target: T1, His-tagged full length ARK5 (Homo sapiens, UniProt O60285); assay: ARK5 Kinase Assay (ARK5 Inhibition Assay); conditions: CHKtide substrate, 1 μM ATP
T1 construct: 20 ng His-tagged full length ARK5 (Invitrogen PV4127); His; purchased Invitrogen PV4127
T1 sequence (O60285 1-661): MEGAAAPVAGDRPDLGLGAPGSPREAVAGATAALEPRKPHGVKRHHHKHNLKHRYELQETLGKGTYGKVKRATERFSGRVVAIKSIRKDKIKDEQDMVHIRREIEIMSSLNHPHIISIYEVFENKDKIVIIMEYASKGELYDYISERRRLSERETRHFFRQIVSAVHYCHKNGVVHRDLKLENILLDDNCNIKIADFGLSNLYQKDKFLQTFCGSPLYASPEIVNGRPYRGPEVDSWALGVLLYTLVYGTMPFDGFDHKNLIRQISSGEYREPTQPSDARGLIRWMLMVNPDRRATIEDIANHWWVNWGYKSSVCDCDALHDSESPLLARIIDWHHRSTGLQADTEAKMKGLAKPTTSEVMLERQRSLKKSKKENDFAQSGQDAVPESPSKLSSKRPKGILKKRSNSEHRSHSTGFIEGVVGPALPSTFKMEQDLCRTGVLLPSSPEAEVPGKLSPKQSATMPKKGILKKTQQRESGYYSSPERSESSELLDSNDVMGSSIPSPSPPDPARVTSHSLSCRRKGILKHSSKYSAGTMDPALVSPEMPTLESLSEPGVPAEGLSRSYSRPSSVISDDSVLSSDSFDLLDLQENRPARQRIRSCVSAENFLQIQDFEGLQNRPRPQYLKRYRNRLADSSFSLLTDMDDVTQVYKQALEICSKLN
Protocol: 20 ng His-tagged full length ARK5 (Invitrogen PV4127), a protein kinase, was diluted into kinase buffer (25 mM HEPES pH 7.5, 10 mM MgCl2, 0.5 mM EGTA, 0.5 mM Na3V04, 5 mM β Glycerophosphate, 2.5 mM DTT, 0.01% Triton X-100) and incubated with the indicated concentration of a compound of Table 3 at room temperature for 30 minutes. The kinase reactions were then initiated by the addition of 1 μg (3.28 μM) CHKtide substrate peptide (Upstate 12-414), 1 μM ATP and 10 μCi γ^32 P-ATP. The reactions were incubated at 30° C. for 10 minutes.
Subsequently, the reactions were stopped by adding 3% phosphoric acid. A 10 μl aliquot was then transferred to an appropriate area of a p30 filtermat. The filtermat was allowed to dry for 20 minutes at room temperature and then washed three times with 75 mM phosphoric acid and twice with methanol. The filtermat was then dried for 20 minutes at room temperature. The filtermat was then exposed to X ray film or read in a scintillation counter. The scintillation counting values were plotted as function of log drug concentration using Prism 4 Graph pad software and IC50 values determined by plotting sigmoidal non-linear regression curves with variable slope.

ZAK/MLTK = ZAK/MLTK (Homo sapiens, UniProt Q9NYL2); assay: Kinase inhibition panel; conditions: 10 μM ATP

TAOK2ITA01, sequence (Q9UL54 whole entry): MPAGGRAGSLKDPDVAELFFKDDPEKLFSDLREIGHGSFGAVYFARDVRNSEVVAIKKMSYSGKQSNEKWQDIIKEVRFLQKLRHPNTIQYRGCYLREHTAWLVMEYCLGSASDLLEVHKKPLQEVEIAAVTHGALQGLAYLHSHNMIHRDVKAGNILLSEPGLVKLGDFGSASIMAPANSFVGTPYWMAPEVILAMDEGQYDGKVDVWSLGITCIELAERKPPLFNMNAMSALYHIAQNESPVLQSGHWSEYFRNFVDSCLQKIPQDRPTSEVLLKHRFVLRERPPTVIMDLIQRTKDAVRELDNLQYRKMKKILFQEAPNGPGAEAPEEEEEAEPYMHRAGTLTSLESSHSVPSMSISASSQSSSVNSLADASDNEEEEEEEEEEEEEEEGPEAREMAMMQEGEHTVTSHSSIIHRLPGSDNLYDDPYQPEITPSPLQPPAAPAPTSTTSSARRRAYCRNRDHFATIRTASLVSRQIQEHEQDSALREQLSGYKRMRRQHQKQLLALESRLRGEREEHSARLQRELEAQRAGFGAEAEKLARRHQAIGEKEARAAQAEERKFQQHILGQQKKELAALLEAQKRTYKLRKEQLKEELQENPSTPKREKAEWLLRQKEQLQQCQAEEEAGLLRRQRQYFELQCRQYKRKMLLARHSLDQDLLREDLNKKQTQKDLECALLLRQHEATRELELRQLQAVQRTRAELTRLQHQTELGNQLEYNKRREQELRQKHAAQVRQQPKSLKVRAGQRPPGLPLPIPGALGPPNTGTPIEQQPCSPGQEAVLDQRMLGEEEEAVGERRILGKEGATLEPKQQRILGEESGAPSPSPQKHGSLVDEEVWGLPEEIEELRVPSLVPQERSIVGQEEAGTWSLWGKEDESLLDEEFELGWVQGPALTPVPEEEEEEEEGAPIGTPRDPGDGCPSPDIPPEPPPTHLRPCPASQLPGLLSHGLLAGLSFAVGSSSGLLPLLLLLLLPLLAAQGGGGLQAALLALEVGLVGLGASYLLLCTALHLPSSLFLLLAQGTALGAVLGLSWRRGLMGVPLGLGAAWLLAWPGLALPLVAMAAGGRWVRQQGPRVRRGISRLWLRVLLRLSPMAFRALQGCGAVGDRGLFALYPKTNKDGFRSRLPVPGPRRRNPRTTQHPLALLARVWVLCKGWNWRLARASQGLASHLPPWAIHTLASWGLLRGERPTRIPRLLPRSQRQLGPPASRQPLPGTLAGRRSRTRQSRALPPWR
FGFR3, sequence (P22607 23-806, species assumed): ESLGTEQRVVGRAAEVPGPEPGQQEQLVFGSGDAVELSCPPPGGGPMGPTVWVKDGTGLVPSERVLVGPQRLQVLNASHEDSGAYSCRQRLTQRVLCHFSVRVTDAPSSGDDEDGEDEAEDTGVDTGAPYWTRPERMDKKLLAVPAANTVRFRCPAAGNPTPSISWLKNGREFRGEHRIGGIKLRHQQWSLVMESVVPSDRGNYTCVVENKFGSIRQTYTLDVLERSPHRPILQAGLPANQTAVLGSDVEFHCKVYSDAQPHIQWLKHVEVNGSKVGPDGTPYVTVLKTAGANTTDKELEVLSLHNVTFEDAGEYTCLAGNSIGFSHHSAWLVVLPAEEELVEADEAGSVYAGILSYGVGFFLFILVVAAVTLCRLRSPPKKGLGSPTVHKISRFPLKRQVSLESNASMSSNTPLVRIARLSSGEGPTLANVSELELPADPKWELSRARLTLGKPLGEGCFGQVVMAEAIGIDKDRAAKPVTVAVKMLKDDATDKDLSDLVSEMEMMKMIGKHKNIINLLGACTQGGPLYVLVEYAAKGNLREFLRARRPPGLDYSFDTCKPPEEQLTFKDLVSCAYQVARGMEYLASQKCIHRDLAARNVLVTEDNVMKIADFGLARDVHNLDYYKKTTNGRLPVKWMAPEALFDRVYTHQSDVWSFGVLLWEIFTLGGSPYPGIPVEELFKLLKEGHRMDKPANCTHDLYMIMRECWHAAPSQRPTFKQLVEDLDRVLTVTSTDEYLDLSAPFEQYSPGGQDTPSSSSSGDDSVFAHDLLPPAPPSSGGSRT
FMS, sequence (P07333 20-972, species assumed): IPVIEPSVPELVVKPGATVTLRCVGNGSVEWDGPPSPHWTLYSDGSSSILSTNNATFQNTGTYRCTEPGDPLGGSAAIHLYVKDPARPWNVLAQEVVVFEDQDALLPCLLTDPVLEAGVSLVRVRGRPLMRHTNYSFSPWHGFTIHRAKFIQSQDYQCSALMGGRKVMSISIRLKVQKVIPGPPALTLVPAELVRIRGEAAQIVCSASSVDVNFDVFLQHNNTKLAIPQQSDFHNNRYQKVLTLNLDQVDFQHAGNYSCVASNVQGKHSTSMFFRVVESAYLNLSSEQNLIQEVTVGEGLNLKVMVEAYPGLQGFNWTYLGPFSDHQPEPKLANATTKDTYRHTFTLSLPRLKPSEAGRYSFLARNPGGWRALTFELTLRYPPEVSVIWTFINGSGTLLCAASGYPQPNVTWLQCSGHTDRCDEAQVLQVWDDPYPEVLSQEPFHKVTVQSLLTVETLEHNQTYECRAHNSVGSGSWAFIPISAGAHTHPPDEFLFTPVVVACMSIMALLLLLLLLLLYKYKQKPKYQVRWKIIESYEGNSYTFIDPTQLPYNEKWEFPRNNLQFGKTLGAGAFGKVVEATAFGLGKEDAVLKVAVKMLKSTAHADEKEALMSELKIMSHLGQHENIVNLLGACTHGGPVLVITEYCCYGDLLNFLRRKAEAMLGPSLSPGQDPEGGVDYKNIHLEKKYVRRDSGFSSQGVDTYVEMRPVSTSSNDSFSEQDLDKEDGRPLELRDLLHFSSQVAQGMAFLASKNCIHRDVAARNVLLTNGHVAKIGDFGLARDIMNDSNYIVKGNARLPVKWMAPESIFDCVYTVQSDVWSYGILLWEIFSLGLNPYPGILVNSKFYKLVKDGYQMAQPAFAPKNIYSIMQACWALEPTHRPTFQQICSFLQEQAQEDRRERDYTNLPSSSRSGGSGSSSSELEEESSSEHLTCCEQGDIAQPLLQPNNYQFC
CDK6/cyclinD1, sequence (Q00534 whole entry, species assumed): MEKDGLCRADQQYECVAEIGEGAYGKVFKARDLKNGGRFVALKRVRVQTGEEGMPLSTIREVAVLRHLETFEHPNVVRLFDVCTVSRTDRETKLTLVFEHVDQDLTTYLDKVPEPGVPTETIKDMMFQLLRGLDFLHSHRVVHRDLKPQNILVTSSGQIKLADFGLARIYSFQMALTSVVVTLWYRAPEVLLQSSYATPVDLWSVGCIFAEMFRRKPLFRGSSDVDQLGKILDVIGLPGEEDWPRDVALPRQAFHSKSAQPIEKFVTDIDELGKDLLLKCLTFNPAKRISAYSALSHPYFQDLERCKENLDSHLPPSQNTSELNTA
CDK6/cyclinD1, sequence (P24385 whole entry partner, species assumed): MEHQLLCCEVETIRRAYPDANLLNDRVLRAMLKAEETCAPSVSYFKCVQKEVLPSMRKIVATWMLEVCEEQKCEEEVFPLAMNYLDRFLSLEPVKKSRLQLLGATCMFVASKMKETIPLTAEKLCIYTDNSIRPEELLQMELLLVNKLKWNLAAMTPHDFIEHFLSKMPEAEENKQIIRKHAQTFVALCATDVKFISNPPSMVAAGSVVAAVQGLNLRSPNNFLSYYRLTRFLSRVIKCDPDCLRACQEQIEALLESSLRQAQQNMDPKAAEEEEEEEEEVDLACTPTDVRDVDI
EPHA2, sequence (P29317 24-976, species assumed): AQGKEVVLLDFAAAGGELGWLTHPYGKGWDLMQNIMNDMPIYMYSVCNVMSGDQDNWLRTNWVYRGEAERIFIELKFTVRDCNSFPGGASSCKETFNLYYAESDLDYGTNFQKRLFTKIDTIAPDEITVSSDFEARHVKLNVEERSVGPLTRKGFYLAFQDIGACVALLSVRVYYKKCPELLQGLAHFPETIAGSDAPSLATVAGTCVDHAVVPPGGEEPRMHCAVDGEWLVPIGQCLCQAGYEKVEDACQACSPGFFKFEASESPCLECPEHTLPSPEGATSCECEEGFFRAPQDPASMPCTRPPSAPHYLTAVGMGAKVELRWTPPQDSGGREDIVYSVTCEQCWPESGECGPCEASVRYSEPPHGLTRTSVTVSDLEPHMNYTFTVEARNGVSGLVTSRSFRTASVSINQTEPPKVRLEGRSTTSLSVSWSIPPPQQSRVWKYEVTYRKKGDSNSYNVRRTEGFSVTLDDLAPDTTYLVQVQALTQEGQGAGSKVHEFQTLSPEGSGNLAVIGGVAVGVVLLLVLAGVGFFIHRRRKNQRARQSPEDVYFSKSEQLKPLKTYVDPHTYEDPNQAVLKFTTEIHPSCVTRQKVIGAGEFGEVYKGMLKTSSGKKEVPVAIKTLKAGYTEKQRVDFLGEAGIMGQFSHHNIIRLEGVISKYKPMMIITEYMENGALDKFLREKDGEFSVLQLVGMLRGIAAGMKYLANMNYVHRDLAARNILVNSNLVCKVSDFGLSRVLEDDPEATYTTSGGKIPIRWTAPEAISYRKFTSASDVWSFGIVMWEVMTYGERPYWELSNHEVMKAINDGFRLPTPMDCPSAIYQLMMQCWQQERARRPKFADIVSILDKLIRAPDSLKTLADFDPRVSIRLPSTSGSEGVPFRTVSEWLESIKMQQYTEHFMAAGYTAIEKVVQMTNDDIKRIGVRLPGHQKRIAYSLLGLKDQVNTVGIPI
CDK4/Cyclin D1, sequence (P11802 whole entry, species assumed): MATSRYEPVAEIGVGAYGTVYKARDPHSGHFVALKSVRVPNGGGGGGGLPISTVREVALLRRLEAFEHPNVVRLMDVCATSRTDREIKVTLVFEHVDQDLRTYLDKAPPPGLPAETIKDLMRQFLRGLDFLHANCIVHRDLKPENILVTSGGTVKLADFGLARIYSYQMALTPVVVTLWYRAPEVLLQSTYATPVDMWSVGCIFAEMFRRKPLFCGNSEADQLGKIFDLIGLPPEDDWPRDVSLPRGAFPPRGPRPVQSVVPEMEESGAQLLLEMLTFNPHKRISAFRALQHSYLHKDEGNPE
CDK4/Cyclin D1, sequence (P24385 whole entry partner, species assumed): as the sequence (P24385 whole entry partner, species assumed) above

With `CN1CCN(c2ccc(Nc3ncc4cc(C#N)c(=O)n(C5CCCC5)c4n3)cc2)CC1` [Compound 12, 8-cyclopentyl-2-((4-(4-methylpiperazin-1-yl)phenyl)amino)-7-oxo-7,8-dihydropyrido[2,3-d]pyrimidine-6-carbonitrile] the pIC50 (FLT4NEGFR3) was 7.20, the pIC50 (PKCnu/PRK D3) was 7.25 and the pIC50 (PKCmu) was 6.85. For the same compound, the pIC50 (CDK7/cyclinH/MNAT1) was less than 5.00, the pIC50 (SIK2/SNF1LK2) was 7.01 and the pIC50 (CDK4/Cyclin D1) was 8.40. It also gave a pIC50 (FGFR3) of 6.91, a pIC50 (LIMK1) of 7.15 and a pIC50 (TAOK2ITA01) of 7.16. For the same compound, the pIC50 (FMS) was 8.84, the pIC50 (CDK9/cyclin K) was 7.57 and the pIC50 (LCK) was 7.30. It also gave a pIC50 (EphB4) of 6.92, a pIC50 (LOK/STK10) of 6.74 and a pIC50 (FLTINEGFRI) of 7.03. The pIC50 (CDK6/cyclinD1) was 7.74, the pIC50 (PAK3) was 5.71 and the pIC50 (ABL2/ARG) was 7.04. The pIC50 (CDK4/Cyclin D3) was 7.67, the pIC50 (FGFR2) was 7.26 and the pIC50 (LYN) was 7.16. It also gave a pIC50 (FLT3) of 7.87, a pIC50 (EPHA2) of 6.94 and a pIC50 (ARK5) of 8.11. The pIC50 [1] was 7.56 and the pIC50 (ZAK/MLTK) was 7.53.
